In brackets after ≈: the same amount, converted by molar mass.
Experiments:
Assay in all cases: Bacteriostatic activity by the method of streaks in gelose media, minimum inhibitory concentration
Assay type in all cases: cell-based
Streptococcus Pyrogenes = conditions: streaks from 24 hour old culture, gram + ve, read-out: Minimal inhibitory concentration Streptococcus Pyrogenes
Description: (§1) The bacteriostatic activity of the phenols according to the invention has been evaluated by the method of streaks in gelose media. This method comprises making increasing dilutions of the product to be tested, in nutritive geloses poured into a Petri dish.
(§2) The various bacteria to be studied are then introduced onto the geloses in parallel streaks by means of a platinum loop which has been immersed in a 24 hour old culture of each bacteria.
(§3) The activity of these compounds has been studied vis a vis two gram + ve bacteria, namely Staphylococcus Aureus and Streptococcus Pyrogenes.

Staphylococcus Aureus = conditions: streaks from 24 hour old culture, gram + ve, read-out: Minimal inhibitory concentration Staphylococcus Aureus
Description: as §1, §2, §3

Escherichia Coli = conditions: streaks from 24 hour old culture, read-out: Minimal inhibitory concentration Escherichia Coli
Description: as §1, §2

Row | MIC (Streptococcus Pyrogenes) | MIC (Staphylococcus Aureus) | MIC (Escherichia Coli) | Structure (SMILES)
1 | 7.5 µg/mL | 1 µg/mL | – | Cc1cc(O)c(C2CC3CCC2(C)C3(C)C)cc1[N+](=O)[O-] (centres unmarked) [Example 1, 2-isobornyl-4-nitro-5-methylphenol]
2 | 20 µg/mL | 5 µg/mL | – | Cc1ccc(O)c(C2CC3CC2C(C)C3(C)C)c1 (centres unmarked) [Example 13, 2-isocamphyl-4-methylphenol]
3 | 10 µg/mL | 5 µg/mL | – | COc1ccc(O)cc1C1CC2CCC1(C)C2(C)C (centres unmarked) [Example 14, 3-isobornyl-4-methoxyphenol]
4 | – | 5 µg/mL | 20 µg/mL (≈ 71.1 µM) | Cc1cc(O)c(C2CC3CCC2C3)cc1Br (stereo not drawn) [Example 9, 2-exo-norbornyl-4-bromo-5-methylphenol]
5 | 10 µg/mL | 2.5 µg/mL | – | CC1(C)C2CCC1(C)C(c1cc(Cl)ccc1O)C2 (centres unmarked) [Example 11, 2-isobornyl-4-chlorophenol]
6 | 5 µg/mL | 2.5 µg/mL | – | Cc1cc(O)c(C2CC3CCC2(C)C3(C)C)cc1Cl (centres unmarked) [Example 7, 2-isobornyl-4-chloro-5-methylphenol]
7 | 10 µg/mL | 5 µg/mL | – | Cc1cc(O)c(C2CC3CCC2(C)C3(C)C)cc1C#N (centres unmarked) [Example 15, 2-isobornyl-4-cyano-5-methylphenol]
8 | – | 5 µg/mL | – | COc1cc(C)c(O)cc1C1CC2CCC1(C)C2(C)C (centres unmarked) [Example 12, 2-methyl-4-methoxy-5-isobornyl phenol]
9 | 5 µg/mL | 2.5 µg/mL | – | CC1C2CC(CC2c2cc(Br)ccc2O)C1(C)C (centres unmarked) [Example 6, 2-isocamphyl-4-bromophenol]
10 | 10 µg/mL | 5 µg/mL | – | O=[N+]([O-])c1ccc(O)c(C2CC3CCC2C3)c1 (stereo not drawn) [Example 5, 2-exo-norbornyl-4-nitrophenol]
11 | 20 µg/mL | 7.5 µg/mL | 7.5 µg/mL (≈ 28.1 µM) | Oc1ccc(Br)cc1C1CC2CCC1C2 (stereo not drawn) [Example 8, 2-exo-norbornyl-4-bromophenol]
12 | 30 µg/mL | 2 µg/mL | – | CC1(C)C2CCC1(C)C(c1cc(Br)ccc1O)C2 (centres unmarked) [Example 4, 2-isobornyl-4-bromophenol]
13 | – | 5 µg/mL | 10 µg/mL (≈ 44.9 µM) | Oc1ccc(Cl)cc1C1CC2CCC1C2 (stereo not drawn) [Example 10, 2-exo-norbornyl-4-chlorophenol]
14 | 5 µg/mL | 1 µg/mL | – | CC1(C)C2CCC1(C)C(c1cc([N+](=O)[O-])ccc1O)C2 (centres unmarked) [Example 3, 2-isobornyl-4-nitrophenol]
15 | 7.5 µg/mL | 5 µg/mL | – | CC1(C)C2CCC1(C)C(c1cc(C#N)ccc1O)C2 (centres unmarked) [Example 16, 2-isobornyl-4-cyano phenol]
16 | 15 µg/mL | 5 µg/mL | – | Cc1cc(O)c(C2CC3CCC2(C)C3(C)C)cc1Br (centres unmarked) [Example 2, 2-isobornyl-4-bromo-5-methyl-phenol]

Reference: patent US4067899A, “Terpenophenols” (Societe Anonyme dite: MAR-PHA, Societe d'Etude et …, priority 1974, dated 1978)
